Test results: patent US6531511B1, “2-adamantanemethanamine compounds for treating abnormalities in glutamatergic transmission” (Vernalis Research Limited, priority 1999, dated 2003)
Where a name gives a salt, the structure may show the parent alone.

SMILES | melting point [°C]
Cc1ccccc1C1(CN)C2CC3CC(C2)CC1C3 (stereo not shown) (as salt: hydrochloride) | 270 to 271
CCc1cccc(C2(CN)C3CC4CC(C3)CC2C4)c1 (stereo not shown) (as salt: hydrochloride) [Example 1, 2-(3-Ethylphenyl)-2-adamantanemethanamine hydrochloride] | 89 to 90
Cc1cccc(C2(CN)C3CC4CC(C3)CC2C4)c1 (stereo not shown) (as salt: hydrochloride) [Example 2, 2-(3-Methylphenyl)-2-adamantanemethanamine hydrochloride] | 242 to 243
NCC1(c2ccccc2)C2CC3CC(C2)CC1C3 (stereo not shown) (as salt: hydrochloride) [Example 3, 2-Phenyl-2-adamantanemethanamine hydrochloride] | 253 to 255
Cc1ccc(C2(CN)C3CC4CC(C3)CC2C4)cc1 (stereo not shown) (as salt: hydrochloride) [Example 4, 2-(4-Methylphenyl)-2-adamantanemethanamine hydrochloride] | 261 to 263
NCC1(c2ccc(F)cc2)C2CC3CC(C2)CC1C3 (stereo not shown) (as salt: hydrochloride) [Example 6, 2-(4-Fluorophenyl)-2-adamantanemethanamine hydrochloride] | 262 to 263
NCC1(c2ccc(Cl)cc2)C2CC3CC(C2)CC1C3 (stereo not shown) (as salt: hydrochloride) [Example 7, 2-(4-Chlorophenyl)-2-adamantanemethanamine hydrochloride] | > 300
COc1ccc(C2(CN)C3CC4CC(C3)CC2C4)cc1 (stereo not shown) (as salt: hydrochloride) [Example 8, 2-(4-Methoxyphenyl)-2-adamantanemethanamine hydrochloride] | 234 to 235
NCC1(c2ccc(C(F)(F)F)cc2)C2CC3CC(C2)CC1C3 (stereo not shown) (as salt: hydrochloride) [Example 9, 2-(4-Trifluoromethylphenyl)-2-adamantanemethanamine hydrochloride] | 279 to 281
NCC1(c2cccs2)C2CC3CC(C2)CC1C3 (stereo not shown) (as salt: hydrochloride) [Example 10, 2-(2-Thienyl)-2-adamantanemethanamine hydrochloride] | 255 to 257
